Experimental data from US20220395553A1, “CXCR4 ANTAGONIST PEPTIDES” (COHBAR, INC., priority 2019, published 2022).
Square brackets hold non-standard residues; d marks the D form. Peptide text beside a SMILES is read from it.

How the values were obtained:
[1] = target: T1, human CXCR4 (Homo sapiens, UniProt P61073); experiment: CXCR4/CXCL12 binding, HTRF format, single concentration (Example 23); set-up: host or cells: HEK293 (Tag-lite CXCR4 cells, frozen aliquots, transient expression); conditions: 15 nM CXCR4R fluorescent probe, 3 hours, HEK293 Tag-lite CXCR4 cells
T1 sequence (P61073 whole entry): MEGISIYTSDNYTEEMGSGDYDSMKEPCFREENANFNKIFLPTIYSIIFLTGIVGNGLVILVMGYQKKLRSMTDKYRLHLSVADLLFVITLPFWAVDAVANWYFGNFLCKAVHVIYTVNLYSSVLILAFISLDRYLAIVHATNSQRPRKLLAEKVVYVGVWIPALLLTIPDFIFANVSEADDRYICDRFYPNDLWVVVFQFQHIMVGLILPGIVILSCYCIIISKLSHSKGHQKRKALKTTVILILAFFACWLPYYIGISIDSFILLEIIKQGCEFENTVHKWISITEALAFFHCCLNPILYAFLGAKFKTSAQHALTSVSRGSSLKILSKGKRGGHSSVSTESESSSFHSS
Description: Peptides were initially prepared as 1 mM stock in H2O and tested at a final concentration of 400 nM. Following the manufacture's protocol, a frozen aliquot of Tag-lite CXCR4 cells was thawed and immediately seeded onto 384-well plates in TLB. Immediately following the addition of cells, 400 nM peptide (final concentration) in TLB was added to the appropriate well. Then 15 nM (final concentration; EC80) of CXCR4R fluorescent probe was added to each well to initiate the HTRF assay. The plates were covered in aluminum foil and left at room temperature for 3 hours. Following the 3 hour incubation period, the plates were removed from the incubator and fluorescence measured using a Cytation 1 plate reader using a HTRF filter cube ([…]; BioTek; Winooski, Vt.). According manufacture's instruction data reduction was performed by calculating the ratio of 665 nm signal (TRF of 665 nm excitation by 620 emission; amount of CXCR4R fluorescent probe bound to terbium labeled CXCR receptor)/620 nm signal (620 excitation by 330 nm light source; normalization factor for amount of terbium labeled CXCR4 receptor in well)×10,000.

[2] = system: CXCR4/CXCL12 induced p-MEK; experiment: CXCR4/CXCL12 induced p-MEK in Jurkat cells (ELISA); format: cell-based, human; conditions: 5 nM CXCL12, 5 min
Description: The assay was performed following a protocol similar to that described by Peng, et al., Mol Cancer Ther., 14 480-90 (2015), incorporated herein by reference. […] Jurkat cells were resuspended in standard growth media (RPMI+GlutaMax media; Gibco/Thermo Fisher Scientific; Gaithersburg, Md.) containing 10% FBS and 1% penicillin/streptomycin. Assays were performed using fresh or conditioned media (media cultured overnight in presence of Jurkat cells) to resuspend cells at density of 2×10^6 cells/ml and […] of cell suspension was immediately placed in 1.7 ml microfuge tubes. […] Following the 5 min incubation, cells were centrifuged at 1000×g for 4 min at 4° C. The supernatant was removed and the cells were rinsed with 1 ml of HBSS containing calcium and magnesium. The HBSS was removed and the cells were immediately lysed in 150 l of lysis buffer included with Phospho-MEK1 (Ser217/221) Sandwich ELISA kit (Cell Signaling Technology; Danvers, Mass.); lysis buffer was supplemented with 1 m M PMSF (Millipore-Sigma; Saint Louis, Mo.) and Halt protease/phosphatase inhibitor cocktail (Thermo-Fisher; Waltham, Mass.) prior to use. The samples were then placed on ice for 10 min and vortexed periodically. Following the lysis step, the samples were centrifuged at 12,500 rpm for 10 min at 4° C. p-MEK expression in each of the samples was then measure using Phospho-MEK1 (Ser217/221) Sandwich ELISA kit according to manufacturer's instructions. Absorbance was measured using a Cytation 3 plate reader at […] (BioTek; Winooski, Vt.).

[3] = target: T1, human CXCR4; experiment: IC50 for inhibition of CXCR4 activation, β-Arrestin recruitment (Example 22); format: cell-based; set-up: host or cells: C2C12 (mouse myoblast) CXCR4 β-Arrestin PathHunter cell line
Description: The assay was run with the DiscoverX protocol. β-Arrestin recruitment assays were performed by Eurofins-DiscoverX (Fremont, Calif.) using C2C12 CXCR4 β-Arrestin cell line (co-expressing ProLink tagged human CXCR4 and Enzyme Acceptor tagged β-Arrestin) and PathHunter detection kit. Peptides were initially prepared as 1 mM stock in H2O and tested in ten (10)-step concentration response curves using 3-fold dilution steps with 1 μM as highest concentration; a concentration range of 1 μM-0.05 nM was tested. C2C12 CXCR4 β-Arrestin cells were seed onto 384-well plates in standard medium. […] At the end of the 90 min incubation period, β-Arrestin recruitment in response to various treatments was quantified using a chemiluminescent complementation reporter assay to measure association of tagged human […] (ProLink tag) and tagged β-Arrestin (Enzyme Acceptor tag).

| Percent Inhibition of CXCR4/CXCL12 Binding (400 nM peptide) [1] | IC50 [3] | SMILES | Percent Inhibition of CXCR4/CXCL12 Induced p-MEK (100 nM Test Article) [2] | Percent Inhibition of CXCR4/CXCL12 Induced p-MEK (1 μM Test Article) [2] |
| --- | --- | --- | --- | --- |
| −5% |  | CC(C)C[C@H](NC(=O)[C@H](CO)NC(=O)[C@H](CO)NC(=O)[C@H](CC(=O)O)NC(=O)[C@@H](NC(=O)[C@H](CO)NC(=O)[C@H](Cc1c[nH]cn1)NC(=O)[C@H](Cc1c[nH]cn1)NC(=O)[C@H](Cc1ccc(O)cc1)NC(=O)[C@H](CCCNC(=N)N)NC(=O)[C@H](CCCNC(=N)N)NC(=O)[C@@H](N)CC(C)C)C(C)C)C(=O)N[C@@H](CCCNC(=N)N)C(=O)N1CCC[C@H]1C(=O)N[C@@H](Cc1ccc(O)cc1)C(=O)N[C@H](C(=O)N[C@@H](CCCCN)C(=O)O)[C@@H](C)O [compound 66] (H-LRRYHHSVDSSLRPYTK-OH; N-terminus and C-terminus assumed) | −7% | 13% |
| 12% | 4 nM | CC(C)C[C@H](NC(=O)[C@H](CO)NC(=O)[C@H](CO)NC(=O)[C@H](CCCNC(=N)N)NC(=O)[C@@H](NC(=O)[C@H](CO)NC(=O)[C@H](Cc1c[nH]cn1)NC(=O)[C@H](Cc1c[nH]cn1)NC(=O)[C@H](Cc1ccc(O)cc1)NC(=O)[C@H](CCCNC(=N)N)NC(=O)[C@H](CCCNC(=N)N)NC(=O)[C@@H](N)CC(C)C)C(C)C)C(=O)O [compound 28] (H-LRRYHHSVRSSL-OH; N-terminus and C-terminus assumed) |  |  |
| 72% |  | CC(C)C[C@H](NC(=O)[C@H](CO)NC(=O)[C@H](CO)NC(=O)[C@H](CCCNC(=N)N)NC(=O)[C@@H](C)NC(=O)[C@H](CO)NC(=O)[C@H](Cc1c[nH]cn1)NC(=O)[C@H](Cc1c[nH]cn1)NC(=O)[C@H](Cc1ccc(O)cc1)NC(=O)[C@H](CCCNC(=N)N)NC(=O)[C@H](CCC(=O)O)NC(=O)[C@@H](N)CC(C)C)C(=O)N[C@@H](CCCNC(=N)N)C(=O)N1CCC[C@H]1C(=O)N[C@@H](Cc1ccc(O)cc1)C(=O)N[C@@H](CO)C(=O)N[C@@H](CCCCN)C(=O)O [compound 78] (H-LERYHHS[dA]RSSLRPYSK-OH; N-terminus and C-terminus assumed) | 29% | 46% |
| −13% |  | CC(C)C[C@H](NC(=O)[C@H](CO)NC(=O)[C@H](CO)NC(=O)[C@H](CCCNC(=N)N)NC(=O)[C@@H](C)NC(=O)[C@H](CO)NC(=O)[C@H](Cc1c[nH]cn1)NC(=O)[C@H](Cc1c[nH]cn1)NC(=O)[C@H](Cc1ccc(O)cc1)NC(=O)[C@H](CCCNC(=N)N)NC(=O)[C@H](CCC(=O)O)NC(=O)[C@@H](C)N)C(=O)N[C@@H](CCCNC(=N)N)C(=O)N1CCC[C@H]1C(=O)N[C@@H](Cc1ccc(O)cc1)C(=O)N[C@H](C(=O)N[C@@H](CCCCN)C(=O)O)[C@@H](C)O [compound 35] (H-[dA]ERYHHS[dA]RSSLRPYTK-OH; N-terminus and C-terminus assumed) | −7% | −6% |
| 0% |  | CC(C)C[C@H](NC(=O)[C@H](CO)NC(=O)[C@H](CO)NC(=O)[C@H](CCCNC(=N)N)NC(=O)[C@@H](NC(=O)[C@H](CO)NC(=O)[C@H](Cc1c[nH]cn1)NC(=O)[C@H](Cc1c[nH]cn1)NC(=O)[C@H](Cc1ccc(O)cc1)NC(=O)[C@H](CCCNC(=N)N)NC(=O)[C@H](CCCNC(=N)N)NC(=O)[C@@H](N)CC(C)C)C(C)C)C(=O)N[C@@H](CCCNC(=N)N)C(=O)N1CCC[C@H]1C(=O)N[C@@H](Cc1ccc(O)cc1)C(=O)O [compound 25] (H-LRRYHHSVRSSLRPY-OH; N-terminus and C-terminus assumed) |  |  |
| 1% |  | CC(C)C[C@H](NC(=O)[C@H](CO)NC(=O)[C@H](CO)NC(=O)[C@H](CCCNC(=N)N)NC(=O)[C@@H](NC(=O)[C@H](CO)NC(=O)[C@H](Cc1c[nH]cn1)NC(=O)[C@H](Cc1c[nH]cn1)NC(=O)[C@H](Cc1ccc(O)cc1)NC(=O)[C@H](CCCNC(=N)N)NC(=O)[C@H](CCCNC(=N)N)NC(=O)[C@@H](N)CC(C)C)C(C)C)C(=O)N[C@@H](CCCNC(=N)N)C(=O)N1CCC[C@H]1C(=O)O [compound 26] (H-LRRYHHSVRSSLRP-OH; N-terminus and C-terminus assumed) |  |  |
| 32% |  | CC(C)C[C@H](NC(=O)[C@H](CO)NC(=O)[C@H](CO)NC(=O)[C@H](CCCNC(=N)N)NC(=O)[C@@H](NC(=O)[C@H](CO)NC(=O)[C@H](Cc1c[nH]cn1)NC(=O)[C@H](CC(N)=O)NC(=O)[C@H](Cc1ccc(O)cc1)NC(=O)[C@H](CCCNC(=N)N)NC(=O)[C@H](CCC(=O)O)NC(=O)[C@@H](N)CC(C)C)C(C)C)C(=O)N[C@@H](CCCNC(=N)N)C(=O)N1CCC[C@H]1C(=O)N[C@@H](Cc1ccc(O)cc1)C(=O)N[C@H](C(=O)N[C@@H](CCCCN)C(=O)O)[C@@H](C)O [compound 42] (H-LERYNHSVRSSLRPYTK-OH; N-terminus and C-terminus assumed) |  |  |
| −2% |  | CC(C)C[C@H](NC(=O)[C@H](CO)NC(=O)[C@H](CO)NC(=O)[C@H](CCCNC(=N)N)NC(=O)[C@@H](NC(=O)[C@H](CO)NC(=O)[C@H](CCC(N)=O)NC(=O)[C@H](Cc1c[nH]cn1)NC(=O)[C@H](Cc1ccc(O)cc1)NC(=O)[C@H](CCCNC(=N)N)NC(=O)[C@H](CCC(=O)O)NC(=O)[C@@H](N)CC(C)C)C(C)C)C(=O)N[C@@H](CCCNC(=N)N)C(=O)N1CCC[C@H]1C(=O)N[C@@H](Cc1ccc(O)cc1)C(=O)N[C@H](C(=O)N[C@@H](CCCCN)C(=O)O)[C@@H](C)O [compound 51] (H-LERYHQSVRSSLRPYTK-OH; N-terminus and C-terminus assumed) |  |  |
| 20% |  | CC(C)C[C@H](NC(=O)[C@H](CO)NC(=O)[C@H](CO)NC(=O)[C@H](CCCNC(=N)N)NC(=O)[C@@H](NC(=O)[C@H](CO)NC(=O)[C@H](Cc1c[nH]cn1)NC(=O)[C@H](Cc1c[nH]cn1)NC(=O)[C@H](Cc1ccc(O)cc1)NC(=O)[C@H](CCCNC(=N)N)NC(=O)[C@H](CCC(=O)O)NC(=O)[C@@H](N)CC(C)C)C(C)C)C(=O)N[C@@H](CCCNC(=N)N)C(=O)O [compound 21] (H-LERYHHSVRSSLR-OH; N-terminus and C-terminus assumed) |  |  |
| −8% |  | CC(C)C[C@H](NC(=O)[C@H](CO)NC(=O)[C@H](CO)NC(=O)[C@H](CCCNC(=N)N)NC(=O)[C@@H](NC(=O)[C@H](CO)NC(=O)[C@H](Cc1c[nH]cn1)NC(=O)[C@H](Cc1c[nH]cn1)NC(=O)[C@H](Cc1ccc(O)cc1)NC(=O)[C@H](CCCNC(=N)N)NC(=O)[C@@H](N)CCCNC(=N)N)C(C)C)C(=O)N[C@@H](CCCNC(=N)N)C(=O)N1CCC[C@H]1C(=O)N[C@@H](Cc1ccc(O)cc1)C(=O)N[C@H](C(=O)N[C@@H](CCCCN)C(=O)O)[C@@H](C)O [compound 10] (H-RRYHHSVRSSLRPYTK-OH; N-terminus and C-terminus assumed) |  |  |
